Among the data in paper PMC5933782, “Molecular structures of cdc2-like kinases in complex with a new inhibitor chemotype” (PLoS ONE, 2018) are melting point values, retold here.

Where a name gives a salt, the structure may show the parent alone.

Regarding `CCc1[nH]c2c3c(ccc2c1-c1ccccc1)CNC3=O` (as salt: sodium) [8l, 2-Ethyl-3-phenyl-6,7-dihydropyrrolo[3,4-g]indol-8(1H)-one], the melting point lay within 165 to 170 °C.
In the case of `Cc1cccc(-c2c[nH]c3c4c(ccc23)CNC4=O)c1` (as salt: sodium) [8i, 3-(3-Methylphenyl)-6,7-dihydropyrrolo[3,4-g]indol-8(1H)-one], the melting point fell in the range of 231 to 232 °C.
`O=C1NCc2c(Br)cc3c(-c4ccccc4)c[nH]c3c21` (as salt: sodium) [12a, 5-Bromo-3-phenyl-6,7-dihydropyrrolo[3,4-g]indol-8(1H)-one]: the melting point fell in the range of 226 to 227 °C.
Turning to `O=C1NCc2ccc3c(-c4ccc(Cl)cc4)c[nH]c3c21` (as salt: sodium) [8d, 3-(4-Chlorophenyl)-6,7-dihydropyrrolo[3,4-g]indol-8(1H)-one], the melting point fell in the range of 255 to 257 °C.
For the compound `O=C1NCc2ccc3c(-c4ccc(Cl)c(Cl)c4)c[nH]c3c21` (as salt: sodium) [8e, 3-(3,4-Dichlorophenyl)-6,7-dihydropyrrolo[3,4-g]indol-8(1H)-one], the melting point fell in the range of 258 to 259 °C.
`CN1Cc2ccc3c(-c4ccccc4)c[nH]c3c2C1=O` (as salt: sodium) [12d, 7-Methyl-3-phenyl-6,7-dihydropyrrolo[3,4-g]indol-8(1H)-one]: the melting point is 265 to 267 °C.
In the case of `Cc1[nH]c2c3c(ccc2c1-c1ccccc1)CNC3=O` (as salt: sodium) [8k, 2-Methyl-3-phenyl-6,7-dihydropyrrolo[3,4-g]indol-8(1H)-one] it was 245 to 247 °C.
Under `O=C1NCc2ccc3c(-c4ccccc4)c[nH]c3c21` (as salt: sodium) [8a, 3-Phenyl-6,7-dihydropyrrolo[3,4-g]indol-8(1H)-one] stands 294 to 295 °C.

By melting point is commonly meant the temperature, or range, at which the solid turns liquid.
